{
  "source": "patent US5296596A",
  "about": "“Hexahydroazepine derivatives, a process for their preparation” (ELF SANOFI, priority 1990, dated 1994)",
  "key": {"sigma receptors [1]": {"tested_on": "sigma receptors", "assay": "In vivo displacement of 3H-(+)-3-PPP at the cerebral level in mice", "text": "(§1) These tests have been carried out in vitro on rat cerebral membranes using as ligands either ^3 H-(+)-3 PPP according to Largent et al., J. Phamacol. […] Acad. Sci. USA, 1986, 83, 8784-8788 and in vivo in mice with the ligand ^3 H-3 PPP according to B. Kenneth Koe et al., European J. Pharmacol., 1989, 161, 263-266."}, "sigma receptors [2]": {"biological_target": "T1, sigma receptors (Rattus norvegicus, UniProt Q9R0C9)", "T1 construct": "in vitro on rat cerebral membranes; from tissue; host or cells: rat cerebral membranes", "T1 sequence (Q9R0C9 whole entry)": "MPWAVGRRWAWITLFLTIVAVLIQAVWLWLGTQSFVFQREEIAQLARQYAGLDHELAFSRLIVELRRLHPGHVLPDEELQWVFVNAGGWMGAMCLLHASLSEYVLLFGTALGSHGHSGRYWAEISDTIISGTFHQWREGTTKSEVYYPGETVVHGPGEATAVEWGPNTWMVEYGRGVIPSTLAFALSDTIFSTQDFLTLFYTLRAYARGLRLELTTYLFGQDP", "assay": "biochemical", "conditions": "binding in vitro, ligand (+)-3-PPP, rat cerebral membranes", "text": "as §1"}, "dopaminergic receptor(s)": {"biological_target": "T2, dopaminergic receptor(s) (Rattus norvegicus, UniProt P61169)", "T2 construct": "from tissue; host or cells: rat brain, probably striatum (inferred from the cited methods)", "T2 sequence (P61169 whole entry)": "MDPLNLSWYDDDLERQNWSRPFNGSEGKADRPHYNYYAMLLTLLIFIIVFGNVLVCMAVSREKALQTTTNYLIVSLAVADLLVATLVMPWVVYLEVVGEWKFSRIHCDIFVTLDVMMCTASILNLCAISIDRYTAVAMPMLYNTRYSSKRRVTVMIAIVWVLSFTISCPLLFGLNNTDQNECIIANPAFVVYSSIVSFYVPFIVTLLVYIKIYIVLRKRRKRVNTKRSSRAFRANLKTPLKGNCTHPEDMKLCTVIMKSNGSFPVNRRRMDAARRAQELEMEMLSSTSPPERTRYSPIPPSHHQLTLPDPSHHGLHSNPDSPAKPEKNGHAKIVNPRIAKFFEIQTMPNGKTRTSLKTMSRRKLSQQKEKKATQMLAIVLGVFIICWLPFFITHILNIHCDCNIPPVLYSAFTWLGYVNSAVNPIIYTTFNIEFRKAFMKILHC", "assay": "biochemical", "conditions": "binding in vitro, ligand spiroperidol"}, "[3]": {"tested_on": "hyperactivity induced by d-amphetamine", "assay": "Antagonism of hyperactivity induced in mice by d-amphetamine", "format": "in vivo", "conditions": "predictive test for antipsychotic activity"}, "sigma receptors [4]": {"tested_on": "sigma receptors", "assay": "Sigma receptor activity/selectivity (test not specified)", "format": "binding", "conditions": "from Table I, versus haloperidol"}, "sigma receptors [5]": {"biological_target": "sigma receptors", "assay": "Binding in vitro on rat cerebral membranes, ligand 3H-DTG", "text": "as §1"}, "TCP": {"biological_target": "TCP", "assay": "Binding in vitro, TCP (thienylcyclohexylpiperidine)", "conditions": "ligand TCP"}},
  "data": [
    {"smiles": "Cl.Clc1cc(/C=C\\CN2CCCCCC2)ccc1C1CCCCC1", "note": "[Example 2, cis-3-(Hexahydroazepin-1-yl)-1-(3-chloro-4-cyclohexylphenyl)-1-propene hydrochloride]", "values": [
      {"measurement": "displacement of the ligand (+)-3PPP, at the cerebral level", "setting": "sigma receptors [1]", "value": "active"},
      {"measurement": "IC50", "setting": "sigma receptors [2]", "value": 8, "unit": "nM"},
      {"measurement": "IC50", "setting": "dopaminergic receptor(s)", "value": 10, "unit": "µM"},
      {"measurement": "hyperactivity induced by d-amphetamine", "setting": "[3]", "value": "active"},
      {"measurement": "sigma impact compared with haloperidol", "setting": "sigma receptors [4]", "value": "superior and/or more selective sigma impact than that of haloperidol"},
      {"measurement": "IC50", "setting": "sigma receptors [5]", "value": 10, "unit": "nM"},
      {"measurement": "IC50", "setting": "TCP", "value": "> 10", "unit": "µM"}
    ]}
  ]
}
